Ki, MBC and MIC data for nine compounds are collected here from paper PMC11357054, “Azobenzenesulfonamide Carbonic Anhydrase Inhibitors as New Weapons to Fight Helicobacter pylori: Synthesis, Bioactivity Evaluation, In Vivo Toxicity, and Computational Studies” (Pharmaceuticals, 2024).

SMILES strings stand for the structures. ≈ marks a conversion by molar mass, not a printed value. Bounds are passed on as bounds.

Test [1] has as its target T1, HpαCA (Helicobacter pylori, UniProt B5Z8I0).
T1 construct: gene HPG27_1129; recombinant, obtained in-house; PDB 4XFW is given for docking only
T1 sequence (B5Z8I0 22-247): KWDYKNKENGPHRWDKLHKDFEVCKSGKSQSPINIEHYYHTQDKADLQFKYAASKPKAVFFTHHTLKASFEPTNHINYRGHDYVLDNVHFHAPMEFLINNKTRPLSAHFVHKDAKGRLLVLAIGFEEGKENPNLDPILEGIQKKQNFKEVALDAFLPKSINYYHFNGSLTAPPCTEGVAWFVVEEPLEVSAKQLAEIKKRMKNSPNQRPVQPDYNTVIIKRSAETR
Put plainly: stopped-flow CO2 hydration. Type of test: biochemical. Particulars: read-out: KI (nM) / Bacterial Isoforms / Hp αCA.

Test [2] addresses T2, EcoβCA (Escherichia coli, UniProt P61517).
T2 construct: gene can; recombinant, obtained in-house
Put plainly: biochemical. Particulars: read-out: Bacterial Isoforms / Eco βCA. As to the method:
(§1) An Applied Photophysics stopped-flow instrument was used to evaluate the ability of the test compounds to inhibit CA-catalyzed CO2 hydration. […] The CO2 concentrations ranged from 1.7 to 17 mM for the determination of the kinetic parameters and inhibition constants. Enzyme concentrations spanned from 5 to 12 nM. Stock solutions of the inhibitor (0.1 mM) were prepared in distilled–deionized water, and dilutions up to 0.01 nM were prepared with the assay buffer. Inhibitor and enzyme solutions were preincubated for 15 min at r.t. for the formation of the E–I complex. The inhibition constants were obtained by non-linear least-squares methods using PRISM 3 and the Cheng–Prusoff equation and represent the mean from at least three different determinations. Apart from human CAs I and II purchased from Merck, all the bacterial CAs were recombinant and obtained in-house. Compounds 4a–j and 5a–j were tested on a large panel of human and bacterial isoenzymes belonging to different CA families, evaluating their inhibitory activity through the CO2 hydration activity assay by means of the stopped-flow technique, and the inhibitory constants (KIs) are reported in Table 1 and Table 2, respectively. In particular, we tested the hypoxic tumor-associated hCAs IX and XII, and bacterial isoforms involved in several infectious diseases, such as those caused by H. pylori (HpαCA and HpβCA), Porphyromonas gingivalis (PgiβCA and PgiγCA), Escherichia coli (EcoβCA), Pseudomonas aeruginosa (PsCA3, belonging to the β-class), Mammaliicoccus (Staphylococcus) sciuri (MscCA, belonging to the β-class), and Streptococcus mutans (SmuCA, belonging to the β-class). The inhibition of human physiologically relevant isoforms I and II was also investigated in order to assess the compounds’ selectivity. Our main aim was to rationalize the structural requirements of sulfonamide-containing compounds useful for targeting HpCAs, in order to gain a larger knowledge for further optimization studies focusing on isoform selectivity. In fact, although the tested human and bacterial isoforms present a low degree of sequence similarity, they catalyze the same reaction and contain the catalytically active zinc ion in the active site. Thus, a comparison of the data obtained from different members of this large superfamily has a high relevance in the field. By observing Table 1 and Table 2, interesting structure–activity relationship (SAR) considerations can be inferred.

Test [3] has as its target T3, PsCA3 (Pseudomonas aeruginosa, UniProt Q9HVB9).
T3 construct: gene PA4676; recombinant, obtained in-house
T3 sequence (Q9HVB9 1-215): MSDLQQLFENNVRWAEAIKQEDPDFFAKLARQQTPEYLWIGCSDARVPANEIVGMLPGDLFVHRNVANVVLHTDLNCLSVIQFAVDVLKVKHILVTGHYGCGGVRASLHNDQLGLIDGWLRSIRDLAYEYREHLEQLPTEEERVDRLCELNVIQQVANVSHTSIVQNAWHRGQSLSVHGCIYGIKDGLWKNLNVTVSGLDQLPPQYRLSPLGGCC
Nature of the test: biochemical. The following applies: read-out: Bacterial Isoforms / Ps CA3. On the procedure: as §1

Test [4] has as its target T4, hCA I (Homo sapiens, UniProt P00915).
T4 construct: gene CA1; purchased from Merck
Nature of the test: biochemical. The following applies: read-out: Human Isoforms / hCA I. As to the method:
as §1

For test [5], the target named is T5, hCA II (Homo sapiens, UniProt P00918).
T5 construct: gene CA2; purchased from Merck
Put plainly: biochemical. The following applies: read-out: Human Isoforms / hCA II. On the procedure: as §1

Test [6] has as its target T6, hCA IX (Homo sapiens, UniProt Q16790).
T6 construct: gene CA9
Nature of the test: biochemical. The following applies: read-out: Human Isoforms / hCA IX. On the procedure: as §1

Test [7] deals with T7, hCA XII (Homo sapiens, UniProt O43570).
T7 construct: gene CA12
T7 sequence (O43570 30-289 limits assumed): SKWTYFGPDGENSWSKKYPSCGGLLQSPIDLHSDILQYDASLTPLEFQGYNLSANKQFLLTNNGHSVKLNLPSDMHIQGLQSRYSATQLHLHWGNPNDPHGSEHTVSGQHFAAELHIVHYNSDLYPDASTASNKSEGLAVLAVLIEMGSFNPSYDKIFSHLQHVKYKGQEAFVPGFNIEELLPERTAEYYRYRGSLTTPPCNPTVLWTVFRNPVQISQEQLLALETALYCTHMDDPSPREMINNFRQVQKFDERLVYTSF
Put plainly: biochemical. Particulars: read-out: Human Isoforms / hCA XII. As to the method: as §1

Test [8] relates to T8, H. pylori ATCC 43504.
T8 construct: ATCC 43504
Nature of the test: microbe, parasite or virus in culture. Further details: species or system Helicobacter pylori ATCC 43504; MIC by broth microdilution, alamarBlue and CFU count; MBC by CFU count. The following applies: Helicobacter pylori, ATCC43504. On the procedure: H. pylori ATCC 43504 was cultured on a Columbia Agar base (Becton Dickinson and Company, Franklin Lakes, NJ, USA) supplemented with 10% horse serum (Merck, St. Louis, MO, USA) and 0.25% yeast extract (Oxoid Ltd., Hampshire, UK), incubated at 37 °C for 72 h in a microaerophilic atmosphere (CampyGen, Thermo Fisher Scientific, Milan, Italy). Colonies were collected and transferred into 10 mL of Brain Heart Infusion broth (BHI, Oxoid Ltd., Hampshire, UK) supplemented with 5% (v/v) of fetal bovine serum (FBS, Merck, Milan, Italy) and incubated overnight at 37 °C, at 125 rpm under microaerophilic conditions. After 18 h of incubation, the broth culture was diluted to obtain a bacterial suspension of 10^6 CFU/mL. MICs were determined by three different assays: the broth micro-dilution method, the alamarBlue assay, and the CFU count. […] This bacterium was selected based on the inhibitory potency evidenced by the two series of azobenzenesulfonamides against the HpCAs.

T4 sequence (P00915 2-261): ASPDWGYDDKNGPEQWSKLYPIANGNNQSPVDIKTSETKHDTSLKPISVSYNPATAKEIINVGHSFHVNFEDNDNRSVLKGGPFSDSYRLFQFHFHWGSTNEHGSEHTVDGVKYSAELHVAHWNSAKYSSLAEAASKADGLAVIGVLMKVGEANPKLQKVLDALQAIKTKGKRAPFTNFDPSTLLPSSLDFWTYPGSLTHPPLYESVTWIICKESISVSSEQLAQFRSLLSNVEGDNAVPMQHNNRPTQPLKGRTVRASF
T2 sequence (P61517 whole entry): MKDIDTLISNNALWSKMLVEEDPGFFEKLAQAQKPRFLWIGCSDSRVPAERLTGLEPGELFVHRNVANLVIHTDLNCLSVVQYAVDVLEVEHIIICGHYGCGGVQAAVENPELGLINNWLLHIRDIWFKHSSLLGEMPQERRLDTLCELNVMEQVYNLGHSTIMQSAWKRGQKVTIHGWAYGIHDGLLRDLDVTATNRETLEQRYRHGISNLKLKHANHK

For the compound `O=[N+]([O-])c1cccc(S(=O)(=O)Nc2ccc(N=Nc3ccccc3)cc2)c1` [5d], the Ki in test [1] is 70.9 nM; in test [2] it was 9.08 µM; in test [3], 90.2 µM; in test [4], 6.75 µM; in test [5], > 100 µM; in test [6], 0.601 µM. Besides, the Ki in test [7] turned out to be 0.215 µM. For the same compound, the MBC in test [8] stood at 64 µg/mL (≈ 167 µM). Moreover, the MIC in test [8] was found to be 16 µg/mL (≈ 41.8 µM).
With `N#Cc1ccc(S(=O)(=O)Nc2ccc(N=Nc3ccccc3)cc2)cc1` [5b], the Ki is 75.6 nM in test [1]; 73.4 µM in test [2]; 5.76 µM in test [3]; 0.359 µM in test [4]; > 100 µM in test [5]; 0.614 µM in test [6]. Further, the Ki in test [7] came to 0.76 µM. The same compound returned an MBC in test [8] of 64 µg/mL (≈ 177 µM). In test [8], this compound had an MIC of 32 µg/mL (≈ 88.3 µM).
Consider `COc1ccc(S(=O)(=O)Nc2ccc(N=Nc3ccccc3)cc2)c(OC)c1` [5f], for which the Ki in test [1] was 71.3 nM; in test [2], 77.7 µM; in test [3], > 100 µM; in test [4], 0.905 µM; in test [5], > 100 µM; in test [6], 5.74 µM. In addition, the Ki in test [7] was found to be 0.894 µM. In test [8], this compound had an MBC of 4 µg/mL (≈ 10.1 µM). The same compound returned an MIC in test [8] of 4 µg/mL (≈ 10.1 µM).
As to `N#Cc1ccc(S(=O)(=O)Nc2ccc(N=Nc3ccccc3)cc2)c(Cl)c1` [5c], the Ki is 77.6 nM in test [1]; 9.21 µM in test [2]; > 100 µM in test [3]; 0.908 µM in test [4]; 24.7 µM in test [5]; 9.2 µM in test [6]. In addition, the Ki in test [7] was 1.75 µM. Also, the MBC in test [8] came out at 8 µg/mL (≈ 20.2 µM). In addition, the MIC in test [8] was determined as 4 µg/mL (≈ 10.1 µM).
With `O=S(=O)(Nc1ccc(N=Nc2ccccc2)cc1)c1ccccc1` [5a], the Ki was 460 nM in test [1]; 6.95 µM in test [2]; 9.28 µM in test [3]; 0.209 µM in test [4]; > 100 µM in test [5]; 3.98 µM in test [6]. Besides, the Ki in test [7] worked out at 0.955 µM. Also, the MBC in test [8] came to 32 µg/mL (≈ 94.8 µM). Also, the MIC in test [8] came out at 16 µg/mL (≈ 47.4 µM).
As for `CCS(=O)(=O)Nc1ccc(N=Nc2ccccc2)cc1` [5j], the Ki in test [1] was 68.4 nM; in test [2] it was > 100 µM; in test [3], 69.8 µM; in test [4], 0.931 µM; in test [5], > 100 µM; in test [6], 7.07 µM. Moreover, in test [7], the Ki was 3.34 µM. Further, in test [8], the MBC came out at 16 µg/mL (≈ 55.3 µM). In test [8], this compound showed an MIC of 16 µg/mL (≈ 55.3 µM).
Take `Cc1ccc(S(=O)(=O)Nc2ccc(N=Nc3ccccc3)cc2)cc1[N+](=O)[O-]` [5e]: the Ki in test [1] was 604 nM; in test [2] it was 59 µM; in test [3], > 100 µM; in test [4], 0.853 µM; in test [5] it was > 100 µM; in test [6] it was 0.792 µM. Moreover, in test [7], the Ki worked out at 0.847 µM. Moreover, the MBC in test [8] is 16 µg/mL (≈ 40.4 µM). The same compound came in with an MIC in test [8] of 8 µg/mL (≈ 20.2 µM).
Regarding `O=S(=O)(Cc1ccccc1)Nc1ccc(N=Nc2ccccc2)cc1` [5h], the Ki in test [1] was 79 nM; in test [2] it was 88.5 µM; in test [3] it was > 100 µM; in test [4] it was 5.53 µM; in test [5] it was > 100 µM; in test [6], 4.49 µM. In addition, the Ki in test [7] turned out to be 2.25 µM. Further, the MBC in test [8] was found to be 128 µg/mL (≈ 364 µM). In test [8], the MIC was found to be 64 µg/mL (≈ 182 µM).
As to `O=S(=O)(Nc1ccc(N=Nc2ccccc2)cc1)c1ccc(Cl)s1` [5g], the Ki in test [1] was 55.8 nM; in test [2] it was 59.2 µM; in test [3] it was > 100 µM; in test [4] it was 0.905 µM; in test [5], > 100 µM; in test [6] it was 4.04 µM. The Ki in test [7] was 4.12 µM. The MBC in test [8] was 16 µg/mL (≈ 42.3 µM). In addition, in test [8], the MIC came to 16 µg/mL (≈ 42.3 µM).
